Data from patent publication US9006450B2 (Boehringer Ingelheim International GmbH, priority 2010, dated 2015).

Target: T1, human ACC2 (Homo sapiens, UniProt O00763)
T1 construct: made in house; host or cells: insect cells (baculoviral expression system)
Experiment: ACC2 assay, spectrophotometric 384 well assay (NADH-linked, coupled lactate dehydrogenase/pyruvate kinase)
Type: biochemical
Details: ACC2 assay, hACC2 construct lacking 128 N-terminal amino acids, 25° C., 340 nm; read-out: IC50
Method: Spectrophotometric 384 Well Assay
Malonyl CoA formation by acetyl CoA carboxylases is stoichometrically linked to the consumption of ATP. ACC2 activity is measured in a NADH-linked kinetic method measuring ADP generated during the ACC reaction using a coupled lactate dehydrogenase/pyruvate kinase reaction.
For biological testing, a human ACC2 construct which lacks the 128 amino acids at the N-terminus for increased solubility (nt 385-6966 in Genbank entry AJ575592) is cloned. The protein is then expressed in insect cells using a baculoviral expression system. Protein purification is performed by anion exchange.
All compounds are dissolved in dimethyl sulfoxide (DMSO) to a concentration of 10 mM.
Assay reactions are then carried out in 384-well plates, with hACC2 in an appropriate dilution and at final assay concentrations (f.c.) of 100 mM Tris (pH 7.5), 10 mM trisodium citrate, 25 mM KHCO3, 10 mM MgCl2, 0.5 mg/mL BSA, 3.75 mM reduced L-glutathione, 15 U/mL lactate dehydrogenase, 0.5 mM phosphoenolpyruvate, 15 U/mL pyruvate kinase, compounds at different concentrations at final DMSO concentrations of 1%.
The enzymatic reaction is then started by addition of a mixture of NADH, acetyl Coenzyme A (both 200 μM f.c.) and ATP (500 uM f.c.). The decrease of the optical density (slope S) is then determined at 25° C. at a wavelength of 340 nm over 15 minutes in a spectrophotometric reader.
Each assay microtiter plate contains wells with vehicle instead of compound as controls for the non-inhibited enzyme (100% CTL; ‘HIGH’) and wells without acetyl-CoA as controls for non-specific NADH degradation (0% CTL; ‘LOW’).
The slope S is used for calculation of % CTL=(S(compound)−S('LOW'))/(S('HIGH')−S('LOW'))*100. Compounds will give values between 100% CTL (no inhibition) and 0% CTL (complete inhibition).
For IC50 value determination, the sample slope in the presence of the test compound after subtraction of the low controls (S(compound)−S('LOW')) are used.
An IC50 value is derived from the compound slopes at different dosages after subtraction of the low controls (S(compound)−S('LOW')) by non-linear regression curve fitting (equation y=(A+((B−A)/(1+((C/x)^D))))).

T1 sequence (O00763 129-2458 limits assumed): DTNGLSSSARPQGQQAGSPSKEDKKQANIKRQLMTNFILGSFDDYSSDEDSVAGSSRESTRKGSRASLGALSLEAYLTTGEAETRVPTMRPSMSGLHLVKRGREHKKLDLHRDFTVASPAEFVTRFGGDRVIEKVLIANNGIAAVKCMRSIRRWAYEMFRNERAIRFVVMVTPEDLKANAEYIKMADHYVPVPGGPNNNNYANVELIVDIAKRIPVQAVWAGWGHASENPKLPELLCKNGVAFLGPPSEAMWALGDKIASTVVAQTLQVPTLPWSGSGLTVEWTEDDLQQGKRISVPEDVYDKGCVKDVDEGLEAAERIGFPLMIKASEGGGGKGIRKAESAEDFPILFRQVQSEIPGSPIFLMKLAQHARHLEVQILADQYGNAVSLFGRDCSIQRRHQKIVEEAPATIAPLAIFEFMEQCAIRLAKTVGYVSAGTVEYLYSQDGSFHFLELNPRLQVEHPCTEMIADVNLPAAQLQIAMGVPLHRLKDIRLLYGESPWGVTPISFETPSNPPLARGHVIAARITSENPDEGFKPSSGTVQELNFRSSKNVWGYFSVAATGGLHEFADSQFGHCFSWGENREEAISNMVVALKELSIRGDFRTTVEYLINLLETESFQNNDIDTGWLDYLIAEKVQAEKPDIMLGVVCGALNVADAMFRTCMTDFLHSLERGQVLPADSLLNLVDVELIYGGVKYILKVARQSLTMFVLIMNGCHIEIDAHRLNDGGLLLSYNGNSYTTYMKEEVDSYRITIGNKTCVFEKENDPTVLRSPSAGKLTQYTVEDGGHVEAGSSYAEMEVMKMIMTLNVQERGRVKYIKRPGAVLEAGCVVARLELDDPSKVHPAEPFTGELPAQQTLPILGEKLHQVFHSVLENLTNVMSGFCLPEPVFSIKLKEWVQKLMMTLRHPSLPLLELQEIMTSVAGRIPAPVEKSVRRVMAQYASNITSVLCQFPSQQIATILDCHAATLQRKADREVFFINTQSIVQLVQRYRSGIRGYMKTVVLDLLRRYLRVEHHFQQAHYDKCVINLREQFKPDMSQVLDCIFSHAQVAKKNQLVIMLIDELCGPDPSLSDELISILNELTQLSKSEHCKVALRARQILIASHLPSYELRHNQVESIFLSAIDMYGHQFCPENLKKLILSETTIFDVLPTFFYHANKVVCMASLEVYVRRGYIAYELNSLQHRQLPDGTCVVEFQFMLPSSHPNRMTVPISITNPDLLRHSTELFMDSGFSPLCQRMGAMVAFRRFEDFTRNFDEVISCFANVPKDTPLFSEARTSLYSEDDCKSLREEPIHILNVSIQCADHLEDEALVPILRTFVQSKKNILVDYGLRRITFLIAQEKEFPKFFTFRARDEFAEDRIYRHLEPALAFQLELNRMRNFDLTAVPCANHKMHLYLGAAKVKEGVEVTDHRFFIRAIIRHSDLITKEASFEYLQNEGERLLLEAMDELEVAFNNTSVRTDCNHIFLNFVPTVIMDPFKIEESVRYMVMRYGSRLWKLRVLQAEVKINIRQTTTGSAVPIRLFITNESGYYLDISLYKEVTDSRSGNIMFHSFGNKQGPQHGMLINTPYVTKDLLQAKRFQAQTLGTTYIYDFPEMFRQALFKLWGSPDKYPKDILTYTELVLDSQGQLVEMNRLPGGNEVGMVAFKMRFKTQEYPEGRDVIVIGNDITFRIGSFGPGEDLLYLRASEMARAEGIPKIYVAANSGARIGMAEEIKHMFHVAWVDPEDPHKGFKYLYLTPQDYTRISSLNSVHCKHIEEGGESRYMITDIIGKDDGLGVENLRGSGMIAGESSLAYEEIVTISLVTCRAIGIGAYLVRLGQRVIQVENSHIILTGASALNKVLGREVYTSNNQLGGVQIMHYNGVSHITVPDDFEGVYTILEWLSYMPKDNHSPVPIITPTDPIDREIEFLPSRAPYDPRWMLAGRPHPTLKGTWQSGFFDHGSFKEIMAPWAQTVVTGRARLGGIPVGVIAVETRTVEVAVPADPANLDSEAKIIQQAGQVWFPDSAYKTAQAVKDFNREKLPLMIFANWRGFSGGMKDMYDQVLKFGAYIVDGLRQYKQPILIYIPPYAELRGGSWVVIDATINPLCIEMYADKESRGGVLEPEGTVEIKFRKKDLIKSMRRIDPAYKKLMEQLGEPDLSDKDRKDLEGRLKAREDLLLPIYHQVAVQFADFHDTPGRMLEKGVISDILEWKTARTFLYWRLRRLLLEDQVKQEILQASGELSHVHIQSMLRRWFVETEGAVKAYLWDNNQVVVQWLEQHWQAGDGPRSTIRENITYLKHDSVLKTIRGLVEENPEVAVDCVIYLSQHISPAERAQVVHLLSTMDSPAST

IC50 | SMILES
100 nM | CC(=O)N[C@@H](C)c1ccc(C2CCN(c3ccc(OCCC(F)(F)F)cc3)CC2)cc1 [Example 1.165]
4000 nM | COc1ccc(N2CCC(c3ccc([C@H](C)NC(C)=O)cc3)CC2)cc1C1CC1 [Example 1.166]
910 nM | CC(=O)N[C@@H](C)c1ccc(C2CCN(c3ccc(OCC4CCCO4)cc3)CC2)cc1 (stereo partly drawn) [Example 1.167]
500 nM | CCOc1ccc(N2CCC(c3ccc([C@H](C)NC(=O)CC)cc3)CC2)c(F)c1 [Example 1.168]
1700 nM | CCC(=O)N[C@@H](C)c1ccc(C2CCN(c3ccnc(Oc4cncnc4)c3)CC2)cc1 [Example 1.169]
400 nM | CCOc1ccc(N2CCC(c3ccc([C@H](C)NC(=O)OC)cc3)CC2)c(F)c1 [Example 1.170]
16300 nM | CC(=O)N[C@@H](C)c1ccc(C2CCN(c3ccc(Cl)cc3C#N)CC2)cc1 [Example 1.171]
250 nM | CC(=O)N[C@@H](C)c1ccc(C2CCN(c3ccc(OC4CCCCC4)nc3)CC2)cc1 [Example 1.172]
820 nM | CC(=O)N[C@@H](C)c1ccc(C2CCN(c3cnc(C4CC4)cn3)CC2)cc1 [Example 1.173]
7500 nM | CC(=O)N[C@@H](C)c1ccc(C2CCN(c3ccc(C4CC4)nn3)CC2)cc1 [Example 1.174]
1100 nM | CC(=O)N[C@@H](C)c1ccc(C2CCN(c3ccc(C4CC4)nc3)CC2)cc1 [Example 1.175]
170 nM | CCCOc1ccc(N2CCC(c3ccc([C@H](C)NC(=O)N(C)C)cc3)CC2)nc1 [Example 1.178]
310 nM | CCOc1ccc(N2CCC(c3ccc([C@H](C)NC(=O)N(C)C)cc3)CC2)nc1 [Example 1.179]
530 nM | CCOc1ccc(N2CCC(c3ccc([C@H](C)NC(C)=O)cc3)CC2)c(OCC)n1 [Example 1.180]
90 nM | CCCOc1ccc(N2CCC(c3ccc([C@H](C)NC(C)=O)cc3)CC2)c(C#N)n1 [Example 1.181]
150 nM | CC(=O)N[C@@H](C)c1ccc(C2CCN(c3ccc(OCC4CC4)nc3C#N)CC2)cc1 [Example 1.183]
1200 nM | CC(=O)N[C@@H](C)c1ccc(C2CCN(c3cc4c(cc3F)OCCCO4)CC2)cc1 [Example 1.184]
22100 nM | C[C@H](NC(=O)C1CC1)c1ccc(C2CCN(c3cc4c(cc3F)OCCCO4)CC2)cc1 [Example 1.185]
170 nM | CC(=O)N[C@@H](C)c1ccc(C2CCN(c3ccc(OCc4ccoc4)cc3)CC2)cc1 [Example 1.186]
80 nM | CC(=O)N[C@@H](C)c1ccc(C2CCN(c3cccc(C(F)(F)F)c3)CC2)cc1 [Example 1.188]
60 nM | CC(=O)N[C@@H](C)c1ccc(C2CCN(c3ccc(OC4CC4)cc3F)CC2)cc1 [Example 1.189]
1400 nM | CCOc1cc(N2CCC(c3ccc([C@H](C)NC(C)=O)cc3)CC2)c(F)cn1 [Example 1.190]
390 nM | CCOc1cc(N2CCC(c3ccc([C@H](C)NC(C)=O)cc3)CC2)ccn1 [Example 1.191]
120 nM | CC(=O)N[C@@H](C)c1ccc(C2CCN(c3ccc4c(c3F)OCCO4)CC2)cc1 [Example 1.192]
450 nM | CCCOc1ccc(N2CCC(c3ccc(C(CC)NC(C)=O)cc3)CC2)cc1 (stereo not drawn) [Example 1.200]
4600 nM | CCC(NC(C)=O)c1ccc(C2CCN(c3ccc4c(c3)OCCO4)CC2)cc1 (stereo not drawn) [Example 1.201]
1900 nM | CCC(NC(C)=O)c1ccc(C2CCN(c3ccc(OCC4CC4)cc3F)CC2)cc1 (stereo not drawn) [Example 1.202]

The next lines start with the compound.

SMILES | IC50
COC(=O)N[C@@H](C)c1ccc(C2CCN(c3ccc(OC4CCCC4)cc3)CC2)cc1 [Example 1.133] | 130 nM
COC(=O)N[C@@H](C)c1ccc(C2CCN(c3ccc(OCC(C)C)cn3)CC2)cc1 [Example 1.134] | 280 nM
COC(=O)N[C@@H](C)c1ccc(C2CCN(c3ccc(OC(C)C)cc3)CC2)cc1 [Example 1.135] | 340 nM
COC(=O)N[C@@H](C)c1ccc(C2CCN(c3ccnc(OC(C)C)c3)CC2)cc1 [Example 1.136] | 500 nM
CCOc1ccc(N2CCC(c3ccc([C@H](C)NC(=O)OC)cc3)CC2)c(OCC)c1 [Example 1.137] | 16000 nM
C[C@H](NC(=O)N(C)C)c1ccc(C2CCN(c3ccnc(Oc4ccccc4)c3)CC2)cc1 [Example 1.138] | 160 nM
C[C@H](NC(=O)C1CC1)c1ccc(C2CCN(c3ccc(OCC4CC4(F)F)cc3)CC2)cc1 (stereo partly drawn) [Example 1.139] | 70 nM
C[C@H](NC(=O)N(C)C)c1ccc(C2CCN(c3ccc(OCC4CC4(F)F)cc3)CC2)cc1 (stereo partly drawn) [Example 1.140] | 90 nM
C[C@H](NC(=O)C1CC1)c1ccc(C2CCN(c3ccc(OCC4CCC4)cc3)CC2)cc1 [Example 1.141] | 320 nM
C[C@H](NC(=O)N(C)C)c1ccc(C2CCN(c3ccc(OCC4CCC4)cc3)CC2)cc1 [Example 1.142] | 60 nM
C[C@H](NC(=O)C1CC1)c1ccc(C2CCN(c3ccc(OCCC4CC4)cc3)CC2)cc1 [Example 1.143] | 120 nM
C[C@H](NC(=O)N(C)C)c1ccc(C2CCN(c3ccc(OCCC4CC4)cc3)CC2)cc1 [Example 1.144] | 60 nM
CCCOc1ccc(N2CCC(c3ccc([C@H](C)NC(=O)CC)cc3)CC2)cc1 [Example 1.145] | 140 nM
CCC(=O)N[C@@H](C)c1ccc(C2CCN(c3ccc4c(c3)OCCO4)CC2)cc1 [Example 1.146] | 1100 nM
CCCOc1ccc(N2CCC(c3ccc([C@H](C)NC(=O)CC)cc3)CC2)c(OC)c1 [Example 1.147] | 490 nM
CCC(=O)N[C@@H](C)c1ccc(C2CCN(c3ccc(OCC4CC4)cc3F)CC2)cc1 [Example 1.148] | 700 nM
CCC(=O)N[C@@H](C)c1ccc(C2CCN(c3ccc(OCC(C)C)cc3)CC2)cc1 [Example 1.149] | 140 nM
CCC(=O)N[C@@H](C)c1ccc(C2CCN(c3ccc(OC4CC4)cc3)CC2)cc1 [Example 1.151] | 110 nM
CCC(=O)N[C@@H](C)c1ccc(C2CCN(c3ccc(OCC4CC4(F)F)cc3)CC2)cc1 (stereo partly drawn) [Example 1.152] | 80 nM
CCC(=O)N[C@@H](C)c1ccc(C2CCN(c3ccnc(Oc4ccccc4)c3)CC2)cc1 [Example 1.153] | 520 nM
CCOc1ccc(N2CCC(c3ccc([C@H](C)NC(=O)CC)cc3)CC2)c(C#N)c1 [Example 1.154] | 300 nM
CC(=O)N[C@@H](C)c1ccc(C2CCN(c3ccc(F)c(C)c3)CC2)cc1 [Example 1.155] | 410 nM
CC(=O)N[C@@H](C)c1ccc(C2CCN(c3ccc(Cl)c(C)c3)CC2)cc1 [Example 1.156] | 600 nM
COc1ccc(N2CCC(c3ccc([C@H](C)NC(C)=O)cc3)CC2)cc1F [Example 1.157] | 580 nM
CC(=O)N[C@@H](C)c1ccc(C2CCN(c3ccc(F)c(C#N)c3)CC2)cc1 [Example 1.159] | 2700 nM
COc1ccc(N2CCC(c3ccc([C@H](C)NC(C)=O)cc3)CC2)cc1C [Example 1.160] | 2100 nM
CC(=O)N[C@@H](C)c1ccc(C2CCN(c3ccc(Cl)c(F)c3)CC2)cc1 [Example 1.161] | 640 nM
COc1cc(N2CCC(c3ccc([C@H](C)NC(C)=O)cc3)CC2)ccc1Cl [Example 1.162] | 3100 nM
CC(=O)N[C@@H](C)c1ccc(C2CCN(c3ccc(F)c(F)c3)CC2)cc1 [Example 1.163] | 670 nM
CC(=O)N[C@@H](C)c1ccc(C2CCN(c3ccc(OCC(F)F)cc3)CC2)cc1 [Example 1.164] | 770 nM
